Measured values from ChEMBL document CHEMBL5226369, “Tetracyclic Steroids Bearing a Bicyclo[4.4.1] Ring System as Potent Antiosteoporosis Agents from the Deep-Sea-Derived Fungus Rhizopus sp. W23” (J Nat Prod, 2023).

Columns and labels:
Assay type in all cases: functional, cell-based
A-375 = assay: Antiproliferative activity against human A-375 cells by MTT assay
[1] = Antiproliferative activity against human SKGT4 cells by MTT assay
KYSE-450 = assay: Antiproliferative activity against human KYSE-450 cells by MTT assay
NCI-H1299 = assay: Antiproliferative activity against human NCI-H1299 cells by MTT assay
A549 = assay: Antiproliferative activity against human A549 cells by MTT assay
U2OS = assay: Antiproliferative activity against human U2OS cells by MTT assay
K562 = assay: Antiproliferative activity against human K562 cells by MTT assay
BGC-823 = assay: Antiproliferative activity against human BGC-823 cells by MTT assay
PANC-1 = assay: Antiproliferative activity against human PANC-1 cells by MTT assay
PC-3 = assay: Antiproliferative activity against human PC-3 cells by MTT assay
MCF7 = assay: Antiproliferative activity against human MCF7 cells by MTT assay
HepG2 = assay: Antiproliferative activity against human HepG2 cells by MTT assay
HCT-116 = assay: Antiproliferative activity against human HCT-116 cells by MTT assay
NCI-H460 = assay: Antiproliferative activity against human NCI-H460 cells by MTT assay
[2] = Antiproliferative activity against human QGY-7701 cells by MTT assay; conditions: QGY7701
A-431 = assay: Antiproliferative activity against human A-431 cells by MTT assay
MDA-MB-231 = assay: Antiproliferative activity against human MDA-MB-231 cells by MTT assay
HL-60 = assay: Antiproliferative activity against human HL-60 cells by MTT assay

| IC50 (A-375) | IC50 (NCI-H1299) | IC50 (A549) | IC50 (U2OS) | IC50 (K562) | IC50 (BGC-823) | IC50 (PANC-1) | IC50 (PC-3) | IC50 (MCF7) | IC50 (HepG2) | IC50 (HCT-116) | IC50 (NCI-H460) | IC50 (A-431) | IC50 (MDA-MB-231) | IC50 (HL-60) | Structure (SMILES) | IC50 [1] | IC50 (KYSE-450) | IC50 [2] |
| --- | --- | --- | --- | --- | --- | --- | --- | --- | --- | --- | --- | --- | --- | --- | --- | --- | --- | --- |
| > 20 µM | > 20 µM | > 20 µM | > 20 µM | > 20 µM | > 20 µM | > 20 µM | > 20 µM | > 20 µM | > 20 µM | > 20 µM | > 20 µM | > 20 µM | > 20 µM | > 20 µM | C[C@]12CC[C@@H]3C4=CC[C@H](O)C[C@H](C4)C(=O)C=C3[C@@H]1CC[C@@H]2[C@](C)(O)CC(=O)O | > 20 µM | > 20 µM | > 20 µM |
| > 20 µM | > 20 µM | > 20 µM | > 20 µM | > 20 µM | > 20 µM | > 20 µM | > 20 µM | > 20 µM | > 20 µM | > 20 µM | > 20 µM | > 20 µM | > 20 µM | > 20 µM | C/C=C/[C@@H](O)[C@](C)(O)[C@H]1CC[C@H]2C3=CC(=O)[C@H]4CC(=CC[C@H](O)C4)[C@H]3CC[C@]12C | > 20 µM | > 20 µM | > 20 µM |
| > 20 µM | > 20 µM | > 20 µM | > 20 µM | > 20 µM | > 20 µM | > 20 µM | > 20 µM | > 20 µM | > 20 µM | > 20 µM | > 20 µM | > 20 µM | > 20 µM | > 20 µM | CC(=O)OC(/C=C(\C)[C@H]1CC[C@H]2C3=CC(=O)[C@H]4CC(=CC[C@H](O)C4)[C@H]3CC[C@]12C)C(C)O (stereo partly drawn) | > 20 µM | > 20 µM | > 20 µM |
| > 20 µM | > 20 µM | > 20 µM | > 20 µM | > 20 µM | > 20 µM | > 20 µM | > 20 µM | > 20 µM | > 20 µM | > 20 µM | > 20 µM | > 20 µM | > 20 µM | > 20 µM | CC(=O)/C=C/[C@](C)(O)[C@H]1CC[C@H]2C3=CC(=O)[C@H]4CC(=CC[C@H](O)C4)[C@H]3CC[C@@]21C | > 20 µM | > 20 µM | > 20 µM |
| > 20 µM | > 20 µM | > 20 µM | > 20 µM | > 20 µM | > 20 µM | > 20 µM | > 20 µM | > 20 µM | > 20 µM | > 20 µM | > 20 µM | > 20 µM | > 20 µM | > 20 µM | CC(=O)OC(C)C(O)/C=C(\C)[C@H]1CC[C@H]2C3=CC(=O)[C@H]4CC(=CC[C@H](O)C4)[C@H]3CC[C@]12C (stereo partly drawn) | > 20 µM | > 20 µM | > 20 µM |
| > 20 µM | > 20 µM | > 20 µM | > 20 µM | > 20 µM | > 20 µM | > 20 µM | > 20 µM | > 20 µM | > 20 µM | > 20 µM | > 20 µM | > 20 µM | > 20 µM | > 20 µM | CC(=O)/C=C/[C@@](C)(O)[C@H]1CC[C@H]2C3=CC(=O)[C@H]4CC(=CC[C@H](O)C4)[C@H]3CC[C@@]21C | > 20 µM | > 20 µM | > 20 µM |
